Experimental data published in patent US20130109682A1, “CYCLIC ETHER COMPOUNDS USEFUL AS KINASE INHIBITORS” (NOVARTIS AG, priority 2010, published 2013).

Key:
[1] = molecular target: PIM3 (Homo sapiens, UniProt Q86V86); assay: KinaseGlo Pim3 ATP depletion assay; format: biochemical
Outline: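 Residual ATP was detected by luciferase luminescence once about half had been consumed. The reaction contained 5 nM enzyme, 100 μM BAD peptide (RSRHSSYPAGT) and 40 μM ATP in 50 mM HEPES pH 7.5, 5 mM MgCl2, 1 mM DTT and 0.05% BSA with 2.5% DMSO. Compound and enzyme/peptide were premixed 15 min before ATP.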

[2] = molecular target: PIM1 (Homo sapiens, UniProt P11309); assay: KinaseGlo Pim1 ATP depletion assay; format: biochemical
Chain of PIM1 (P11309 whole entry): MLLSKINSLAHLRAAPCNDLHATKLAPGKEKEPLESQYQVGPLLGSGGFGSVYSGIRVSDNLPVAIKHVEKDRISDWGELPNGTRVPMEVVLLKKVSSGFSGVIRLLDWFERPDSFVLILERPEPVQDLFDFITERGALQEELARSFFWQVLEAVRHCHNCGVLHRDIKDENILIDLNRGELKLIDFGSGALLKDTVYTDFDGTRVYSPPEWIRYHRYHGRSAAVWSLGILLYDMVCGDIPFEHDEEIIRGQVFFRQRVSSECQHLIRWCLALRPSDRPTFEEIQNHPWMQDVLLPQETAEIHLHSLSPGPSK
Outline: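 IC50 is derived from residual ATP measured by KinaseGlo Plus luminescence once about half the ATP was consumed. Final conditions were 20 μM ATP, 40 μM BAD peptide and 2.5 nM kinase in HEPES pH 7.5 buffer with MgCl2, DTT and BSA, plus 2.5% DMSO. Compound and enzyme were premixed 15 min before ATP addition.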

[3] = tested on: KMS11 (human myeloma cell line); assay: Cell proliferation assay (CellTiter-Glo), KMS11; format: cell-based; settings: KMS11-Luc cells
Outline: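 EC50 derived from CellTiter-Glo luminescence after 3-day exposure at 37° C. Compound was diluted to 2× in medium and added to an equal volume of cells. KMS11 myeloma cells were plated on assay day at 2000/well in IMDM with 10% FBS and sodium pyruvate.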

[4] = molecular target: PIM2 (Homo sapiens, UniProt Q9P1W9); assay: KinaseGlo Pim2 ATP depletion assay; format: biochemical
Chain of PIM2 (Q9P1W9 whole entry): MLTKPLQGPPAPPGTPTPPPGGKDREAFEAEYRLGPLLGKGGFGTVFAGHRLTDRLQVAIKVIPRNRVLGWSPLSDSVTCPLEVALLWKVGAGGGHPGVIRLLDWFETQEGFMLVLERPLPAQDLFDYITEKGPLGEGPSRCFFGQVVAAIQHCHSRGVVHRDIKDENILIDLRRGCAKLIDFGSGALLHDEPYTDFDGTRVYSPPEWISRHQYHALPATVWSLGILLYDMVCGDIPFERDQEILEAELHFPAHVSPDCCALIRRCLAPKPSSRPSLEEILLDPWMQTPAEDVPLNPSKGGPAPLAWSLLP
Outline: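 Compound sat 15 min with enzyme and BAD peptide before ATP was added; final levels 5 nM PIM2, 10 μM peptide, 4 μM ATP, 2.5% DMSO, pH 7.5 HEPES buffer with MgCl2, DTT, BSA. Stopped near 50% ATP consumption; remaining ATP measured by luciferase luminescence.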

[5] = molecular target: GSK3β (Homo sapiens, UniProt P49841); assay: GSK3β ATP depletion assay; format: biochemical; settings: read-out: GSK3b IC50
Chain of GSK3β (P49841 whole entry, species assumed): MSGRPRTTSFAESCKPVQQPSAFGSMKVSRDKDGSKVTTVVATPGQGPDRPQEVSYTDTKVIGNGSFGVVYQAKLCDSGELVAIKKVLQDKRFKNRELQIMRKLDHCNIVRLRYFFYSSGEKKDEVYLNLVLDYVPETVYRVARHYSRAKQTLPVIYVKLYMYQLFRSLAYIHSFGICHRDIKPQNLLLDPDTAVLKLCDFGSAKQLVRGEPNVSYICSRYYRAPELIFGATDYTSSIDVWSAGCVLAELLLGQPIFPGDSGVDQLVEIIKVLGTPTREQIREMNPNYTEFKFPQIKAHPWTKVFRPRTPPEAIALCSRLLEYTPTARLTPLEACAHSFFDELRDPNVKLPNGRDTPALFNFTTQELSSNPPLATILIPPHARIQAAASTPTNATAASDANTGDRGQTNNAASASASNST
Outline: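 Kinase activity is read as ATP consumption: luciferase luminescence reports the ATP remaining once roughly half of the 2 μM ATP is used. Reaction mix: 5 nM GSK3β, 10 μM b-CREB peptide, 50 mM Tris pH 7.5, 15 mM MgCl2, 1 mM DTT, 0.1% BSA, 2.5% DMSO. Enzyme and peptide are preincubated 15 min before ATP is added.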

SMILES | IC50 [1] | IC50 [2] | EC50 ([3]; Homo sapiens, KMS-11) | IC50 [4] | IC50 [5] | EC50 [3]
N#CC[C@H]1O[C@@H](c2ccncc2NC(=O)c2nc(-c3c(F)cccc3F)c(F)cc2N)C[C@@H](O)[C@@H]1O [Example 139, 3-amino-N-(4-((2R,4R,5S,6R)-6-(cyanomethyl)-4,5-dihydroxytetrahydro-2H-pyran-2-yl)pyridin-3-yl)-6-(2,6-difluorophenyl)-5-fluoropicolinamide] | 2 nM | 1 nM | > 10000 nM | 5 nM | 450 nM | –
CC[C@H]1O[C@@H](c2ccncc2NC(=O)c2nc(-c3nccs3)ccc2N)C[C@@H](O)[C@@H]1O [Example 140, 3-amino-N-(4-((2R,4R,5S,6R)-6-ethyl-4,5-dihydroxytetrahydro-2H-pyran-2-yl)pyridin-3-yl)-6-(thiazol-2-yl)picolinamide] | 19 nM | 18 nM | > 10000 nM | 54 nM | 2250 nM | –
NC(=O)C[C@H]1O[C@@H](c2ccncc2NC(=O)c2ccc(F)c(-c3c(F)cccc3F)n2)C[C@@H](O)[C@@H]1O [Example 142, N-(4-((2R,4R,5S,6R)-6-(2-amino-2-oxoethyl)-4,5-dihydroxytetrahydro-2H-pyran-2-yl)pyridin-3-yl)-6-(2,6-difluorophenyl)-5-fluoropicolinamide] | 890 nM | 1080 nM | > 10000 nM | 6600 nM | > 25000 nM | –
C[C@H]1O[C@@H](c2ccncc2NC(=O)c2nc(-c3c(F)cccc3F)ncc2N)C[C@@H](O)[C@]1(C)O [Example 146, 5-amino-2-(2,6-difluorophenyl)-N-(4-((2R,4R,5S,6R)-4,5-dihydroxy-5,6-dimethyltetrahydro-2H-pyran-2-yl)pyridin-3-yl)pyrimidine-4-carboxamide] | 5.1 nM | 5.7 nM | > 10000 nM | 9.5 nM | 345 nM | –
C[C@H]1O[C@@H](c2ccncc2NC(=O)c2nc(-c3nccs3)ccc2N)C[C@@H](O)[C@]1(C)O [Example 147, 3-amino-N-(4-((2R,4R,5S,6R)-4,5-dihydroxy-5,6-dimethyltetrahydro-2H-pyran-2-yl)pyridin-3-yl)-6-(thiazol-2-yl)picolinamide] | 18.5 nM | 17.4 nM | > 10000 nM | 71.3 nM | 1320 nM | –
N#C[C@H]1O[C@@H](c2ccncc2NC(=O)c2nc(-c3c(F)cccc3F)ncc2N)C[C@@H](O)[C@@H]1O [Example 148, 5-amino-N-(4-((2R,4R,5S,6R)-6-cyano-4,5-dihydroxytetrahydro-2H-pyran-2-yl)pyridin-3-yl)-2-(2,6-difluorophenyl)pyrimidine-4-carboxamide] | 20.4 nM | 29.7 nM | > 10000 nM | 30.3 nM | 691 nM | –

Continued by falling IC50 [1], values first:

IC50 [1] | IC50 [2] | EC50 ([3]; Homo sapiens, KMS-11) | IC50 [4] | IC50 [5] | EC50 [3] | SMILES
94 nM | 181 nM | > 10000 nM | 720 nM | 3360 nM | – | NC(=O)[C@H]1O[C@@H](c2ccncc2NC(=O)c2ccc(F)c(-c3c(F)cccc3F)n2)C[C@@H](O)[C@@H]1O [Example 141, N-(4-((2R,4R,5S,6S)-6-carbamoyl-4,5-dihydroxytetrahydro-2H-pyran-2-yl)pyridin-3-yl)-6-(2,6-difluorophenyl)-5-fluoropicolinamide]
19.4 nM | 18.4 nM | – | 57.5 nM | 2250 nM | > 10000 nM | CC[C@H]1O[C@@H](c2ccncc2NC(=O)c2nc(-c3nccs3)ccc2N)C[C@@H](O)[C@@H]1O [Example 145, 3-amino-N-(4-((2R,4R,5S,6R)-6-ethyl-4,5-dihydroxytetrahydro-2H-pyran-2-yl)pyridin-3-yl)-6-(thiazol-2-yl)picolinamide]
4.3 nM | 5.3 nM | 4340 nM | 3.7 nM | 394 nM | – | C=C[C@H]1OC(c2ccncc2NC(=O)c2nc(-c3c(F)cccc3F)ncc2N)=C[C@@H](O)[C@@H]1O [Example 144, 5-amino-2-(2,6-difluorophenyl)-N-(4-((2R,3S,4R)-3,4-dihydroxy-2-vinyl-3,4-dihydro-2H-pyran-6-yl)pyridin-3-yl)pyrimidine-4-carboxamide]
